According to patent EP0256532B1, “Use of dihydrobenzopyrane derivatives” (F. HOFFMANN-LA ROCHE AG, priority 1986, dated 1988):
Marks after values point to notes of the source that are not given here.

Experiments:
[1] = system: Antibiotika-induzierte Kolitis in Hamstern; assay: Antibiotic (clindamycin)-induced colitis in hamsters, in vivo; set-up: species or system syrischen Hamstern (LUG)
Protocol: Man verabreicht männlichen, 80-120 g schweren syrischen Hamstern (LUG) eine einmalige Dosis von 175 mg/kg Clindamycin-phosphat oder Clindamycin-hydrochlorid intraperitoneal, um eine Kolitis zu induzieren. Ungefähr 7 Stunden nach dieser Injektion verabreicht man den Tieren die zu testende Verbindung oral oder intraperitoneal. Während einer Periode von 4 weiteren Tagen wird diese Therapie zweimal täglich wiederholt. Für die orale Verabreichung wurde die zu testende Verbindung in Wasser suspendiert oder in Dimethylsulfoxid gelöst und mittels einer Magensonde verabreicht. Der Effekt der Therapie wurde durch das sogenannte "Hazard"-Verhältnis bestimmt. Es handelt sich dabei um das Verhältnis der Sterblichkeitsrate von Tieren, welche mit der zu testenden Verbindung behandelt worden sind, im Vergleich zu den Tieren, welche nur mit Vehikel behandelt worden sind. Die Sterblichkeitsrate wurde zweimal täglich bestimmt und wurde durch Vergleich der Ueberlebenskurven für jede Gruppe ausgewertet. Für jede Gruppe von Versuchstieren wurde die Kaplan-Meier-Schätzung der Ueberlebenskurve berechnet, und es wurde der Mantel-Cox-Test verwendet, um die Ueberlebenskurve der mit Inhibitor behandelten Gruppe mit derjenigen der nur mit Vehikel behandelten Gruppe zu vergleichen. Ein Hazard-Verhältnis von 1,0 bedeutet, dass der Effekt der Therapie nicht besser ist, als derjenige der mit dem Vehikel allein erzielt wird, währenddem ein Hazard-Verhältnis (>1.0) bedeutet, das die Therapie die Ueberlebensrate im Vergleich zu derjenigen Gruppe, welche nur mit dem Vehikel behandelt worden ist, verbessert.

Bradykinin = assay: Rat colon mucosa in vitro (Ussing short-circuit technique), bradykinin-induced secretion; type: cell-based, Ratte; settings: Figur 1; result in words
Text: (§1) Das Bioassay-System des Versuches mit der Mucosa des Rattenkolons basiert auf der Messung der durch Absorption oder Sekretion bewirkten Aenderungen im Salztransport durch das tierische Gewebe, wobei man die durch Ussing et al. beschriebene Standard-Kurzschluss-Technik verwendet, Acta Physiol. Scand. 23, 110-127 (1951). Diarrhö ist das häufigste Symptom bei gastrointestinalen Entzündungen und tritt bei allen Typen der Enteritis auf. Pantera, et al., Ital. J. Gastroenterol. 13: 24-27 (1981); Sales, et al., Arch. Int. Med. 143: 294-299 (1983); Hodgson, Br. J. Clin. Pharmac. 14: 159-270 (1982). Diarrhö wird durch eine Abnahme in der Salzabsorption oder eine Zunahme in der Salzsekretion im Darm bewirkt und kann durch die oben erwähnte Methode von Ussing et al. in vitro quantifiziert werden. Man entfernt von 200-250 g schweren Tieren ein 1 cm langes Segment des Kolons, behandelt dieses in vitro mit Leukotrienen oder Bradykinin, welche die Salzsekretion fördern, und misst die erhaltene Aenderung im Netto-Salztransport, welche in Gegenwart und in Abwesenheit von 6-Acetyl-7-[5-(4-acetyl-3-hydroxy-2-propylphenoxy)pentyloxy] -3,4-dihydro-2H-1-benzopyran-2-carbonsäure als Hemmer erhalten wird. Gewebeproben werden paarweise in Ussing-Kammern befestigt und mit automatischen Spannungsklemmen (von der University of Iowa Bioengineering Department) kurzgeschlossen. […]

[2] = system: Essigsäure-induzierte Colitis in Ratten; assay: Acetic acid-induced colitis in rats, in vivo (myeloperoxidase in colon mucosa); set-up: species or system Ratten (Sprague-Dawley)
Text: Der Essigsäure-induzierte-Colitis-Bioassay an Ratten ist durch J.E. Krawisz et al. in Amer. J. Proc. Gastro. Col. Rec. Surg. 31, 11-18 (1980) und P. Sharon und W.F. Stenson in Gastroenterology 88, 55-63 (1985) und 86, 453-460 (1984) beschrieben worden. Die Essigsäure-induzierte Colitis ist durch eine Wanderung von Entzündungszellen in das Kolon charakterisiert. Die Anzahl derartiger Zellen in der Mucosa kann bestimmt werden, indem man die Aktivität der Myeloperoxidase, einem Marker-Enzym für diese Zellen, misst. Eine positive gewünschte Wirkung zeigt sich in einer Reduktion des hohen Myeloperoxidase-Spiegels, der durch die Essigsäure verursacht wird. Männliche, 150-300 g schwere Ratten (Sprague-Dawley) werden während 2 Tagen, zweimal täglich entweder mit dem Vehikel (Wasser oder Dimethylsulfoxid) oder der im Wasser suspendierten oder in Dimethylsulfoxid gelösten Testsubstanz oral vorbehandelt. Am 3. Tag behandelt man die Tiere noch einmal wie an den beiden Vortagen, anästhetisiert mit Metofan, injiziert 2 ml 2,5-proz. Essigsäure mittels einer Spritze in das Lumen des Kolons und unmittelbar danach 3 ml Luft und eine Spüllösung, bestehend aus 3 ml Phosphat-gepufferter Kochsalzlösung, […] genügend lange im Lumen, um eine Entzündung zu induzieren, ohne jedoch schwere Nekrose oder irreversible Schäden zu bewirken). […]

LTD₄ = assay: Rat colon mucosa in vitro (Ussing short-circuit technique), LTD₄-induced electrolyte secretion; type: cell-based, Ratte; settings: 6 animals
Text: as §1

LTC₄ = assay: Rat colon mucosa in vitro (Ussing short-circuit technique), LTC₄-induced electrolyte secretion; type: cell-based, Ratte; settings: 6 animals
Text: as §1

LTB₄ = assay: Rat colon mucosa in vitro (Ussing short-circuit technique), LTB₄-induced electrolyte secretion; type: cell-based, Ratte; settings: 6 animals
Text: as §1

LTE₄ = assay: Rat colon mucosa in vitro (Ussing short-circuit technique), LTE₄-induced electrolyte secretion; type: cell-based, Ratte; settings: 6 animals
Text: as §1

[3] = system: Carrageenin-induzierte Colitis in Meerschweinchen; assay: Carrageenin-induced colitis in guinea pigs, in vivo (water transport in distal colon); set-up: species or system Meerschweinchen (Hartley); settings: 10 bzw. 30 mg/kg oral; Figur 5
Text: Der Carrageenin-induzierte-Colitis-Bioassay an Meerschweinchen ist durch A. B. Onderdonk in Inflammatory Bowel Diseases, Martinus Nijhoff Publ., Boston, Massachusetts, Seiten 126-134 (1982) und in Human Intestinal Microflora in Health and Disease (D. J. Hentger. ed), Academic Press, New York, 1983, Seiten 447-479 beschrieben worden. Das aus Rotalgen herstammende Polysaccharid Jotacarrageenin bewirkt in Meerschweinchen eine Colitis, welche der ulcerativen Colitis im Menschen ähnlich ist. Männliche und weibliche, 400-650 g Meerschweinchen (Hartley) erhielten via Trinkwasser täglich eine 3-proz. Lösung von abgebautem Carrageenin. Nach etwa 7 Tagen begannen die Versuchstiere eine Diarrhö zu entwickeln, nahmen an Gewicht nicht mehr zu und wurden lethargisch. Nachdem die Versuchstiere während 14 Tagen auf diese Weise Carrageenin verabreicht erhielten, wurde die Diarrhö quantifiziert, und zwar durch Messung des Wassertransportes in den distalen Teil des Kolons durch einfache Pass-Perfusion unter Verwendung von 14C-Polyäthylenglykol 4000 (PEG 4000) als Marker. Kontrolltiere erhielten eine wässrige Trinklösung, enthaltend 3-proz. mannitol anstelle des Carrageenins. Gleichzeitig wurden zufällig ausgewählte Versuchstiere aus diesen beiden Gruppen zweimal täglich mit der Testsubstanz oral behandelt.

[4] = Inhibitor Konzentration 1 Mikromol
[5] = Inhibitor Konzentration 10 Mikromol
[6] = 10 mg/kg intraperitoneal in 0,075 ml PEG-400, twice daily, >1.0 = survival better than vehicle
[7] = 10 mg/kg oral in 0,15 ml Wasser, twice daily

6-Acetyl-7-[5-(4-acetyl-3-hydroxy-2-propylphenoxy)pentyloxy]-3,4-dihydro-2H-1-benzopyran-2-carbonsäure-hexylesters
Hazardverhältnis ([1]; 20 µMol/kg oral (Tabelle 3)): 1,64

CCCc1c(OCCCCCOc2cc3c(cc2C(C)=O)CCC(C(=O)O)O3)ccc(C(C)=O)c1O (racemic) [6-Acetyl-7-[5-(4-acetyl-3-hydroxy-2-propylphenoxy)pentyloxy] -3,4-dihydro-2H-1-benzopyran-2-carbonsäure]
sekretorische Aktivität von Bradykinin (Bradykinin): reduzieren
Activity (reduction of myeloperoxidase level caused by acetic acid) ([2]; oral 30 und 90 mg/kg, Figur 3): aktiv
% Inhibition gegen Leukotriene LTD₄ (LTD₄; [4]): 30,8±15,4%
% Inhibition gegen Leukotriene LTD₄ (LTD₄; [5]): 62,4±10,0%
% Inhibition gegen Leukotriene LTC₄ (LTC₄; [4]): 9,5±19,2%
% Inhibition gegen Leukotriene LTC₄ (LTC₄; [5]): 57,1+19,7%
% Inhibition gegen Leukotriene LTB₄ (LTB₄; [4]): 44,4±13,1%
% Inhibition gegen Leukotriene LTB₄ (LTB₄; [5]): 69,6±11,9%
Hazardverhältnis [1, 6]: 2,87
Hazardverhältnis [1, 7]: 3,80
Hazardverhältnis ([1]; 60 mg/kg intraperitoneal in 0,075 ml PEG-400, twice daily): 4,77
Hazardverhältnis ([1]; 60 mg/kg oral in 0,15 ml Wasser, twice daily): 12,0
Hazardverhältnis ([1]; 100 mg/kg oral in 0,15 ml Wasser, twice daily): 64,2
Hazardverhältnis ([1]; 20 µMol/kg oral (Tabelle 3)): 1,45
Histopathological effects on cecum and colon (oedema, bleeding, necrosis, erosions, inflammatory cell infiltration) ([1]; 60 oder 100 mg/kg, in most cases): reduziert oder gänzlich zum Verschwinden gebracht
Activity against antibiotic-induced colitis ([1]; oral doses 10 bis 100 mg/kg): aktiv
Diarrhö ([1]; result in words): reduzierte
Histopathologie des Cecums und des Kolons ([1]; result in words): verbesserte in einem beträchtlichen Ausmass
Ueberlebensrate der mit Clidamycin behandelten Tiere ([1]; result in words): erhöht
% Inhibition gegen Leukotriene LTE₄ (LTE₄; Inhibitor Konzentration 1 Mikromol (µM)): 29,8±15,0%
% Inhibition gegen Leukotriene LTE₄ (LTE₄; Inhibitor Konzentration 10 Mikromol (µM)): 44,2± 9,8%
Wassertransport-Raten [3]: praktisch gleich waren, wie diejenigen der Kontroll-Versuchstiere

CCCc1c(OCCCCCOc2cc3c(cc2C(C)=O)CCC(C(=O)OC)O3)ccc(C(C)=O)c1O (racemic) [6-Acetyl-7-[5-(4-acetyl-3-hydroxy-2-propylphenoxy)pentyloxy]-3,4-dihydro-2H-1-benzopyran-2-carbonsäure-methylester]
Hazardverhältnis ([1]; 20 µMol/kg oral (Tabelle 3)): 3,42

O=C1CCN(c2ccccc2)N1 [Phenidon, reference compound]
Activity (reduction of myeloperoxidase level caused by acetic acid) ([2]; oral 100 und 200 mg/kg, Figur 2): aktiv

CCCc1c(OCC(O)COc2ccc3c(=O)cc(C(=O)O)oc3c2CCC)ccc(C(C)=O)c1O (stereo not drawn) [Vergleichssubstanz 1, 7-[-3-(4-Acetyl-3-hydroxy-2-propyl-phenoxy)-2-hydroxypropoxy] -4-oxo-8-propyl-4H-1-benzopyran-2-carbonsäure, reference compound]
Hazardverhältnis [1, 6]: 2,02^c
Hazardverhältnis [1, 7]: 1,42
Activity against antibiotic-induced colitis ([1]; oral 10 mg/kg): inaktive

CCCc1c(OCCCOc2ccc3c(=O)cc(CCCC(=O)O)oc3c2CCC)ccc(C(C)=O)c1O [Vergleichssubstanz 2, 7-[3-(4-Acetyl-3-hydroxy-2-propylphenoxy)propoxy]-4-oxo-8-propyl-4H-1-benzopryran-2-propancarbonsäure, reference compound]
Hazardverhältnis ([1]; 13 mg/kg oral in 0,15 ml Wasser, twice daily): 1,68
Activity against antibiotic-induced colitis ([1]; oral 10 mg/kg): inaktive
